We go through nine compounds from patent US7973164B2, “Quinoline derivatives” (AstraZeneca AB, priority 2006, dated 2011).

In one assay the target is T1, KDR (VEGFR2) (Homo sapiens, UniProt P35968).
T1 construct: phosphorylation of KDR expressed in human umbilical vein endothelial cells (HUVECs); host or cells: HUVECs
Put plainly: Test (c) in vitro phospho-KDR ELISA assay in HUVECs. The format is cell-based. Particulars: HUVECs stimulated with VEGF, read-out: IC50 versus phospho-tyrosine formation in KDR. The protocol:
(c) In Vitro Phospho-KDR ELISA Assay
This assay uses a conventional ELISA method to determine the ability of test compounds to inhibit phosphorylation of tyrosine in KDR (VEGFR2).
The cells were incubated overnight at 37° C. with 7.5% CO2 to allow adherence to the well surface. […] The plates were incubated at 37° C. for 2.5 hours.
Test compounds were prepared as 10 mM stock solutions in DMSO and serially diluted with DMSO as required. Aliquots (3 μl) of each concentration of test compound were diluted with ‘serum fiee medium’ (300 μl). Aliquots (50 μl) of each resultant compound concentration were added to the cells in each well. […] The cells were incubated for 90 minutes at 37° C. with 7.5% CO2.
The resultant cells were stimulated with VEGF using the following procedure. A lyopliilised powder of VEGF (Sigma-Aldrich; Catalogue No. V7259) was mixed with PBS containing 0.1% filter-sterilised BSA (0.1% BSA/PBS) to provide a stock solution of 10 μg/ml of VEGF. A dilution of this stock solution into ‘serum free medium’ provided a 1000 ng/ml VEGF solution. Aliquots thereof (50 μl) were added to all wells. The cells were incubated at 37° C. with 7.5% CO2 for 5 minutes. […] The resultant tissue culture plates were shaken for 5 minutes at ambient temperature to ensure full lysis before being frozen on dry-ice and stored at −20° C. until required.
The antibody was diluted in PBS to a concentration of 8 μg/ml, aliquots (100 μl) were added to each well and the plates were stored at ambient temperature for 16 hours. The wells were washed 3 times (1 minute soak each time) with 300 μl per well of PBST. The wells were treated with PBS containing 1% filter-sterilised BSA (1% BSA/PBS; 200 μl) at ambient temperature for 1 hour and subsequently washed 3 times with 300 μl per well of PBST.
The tissue culture plates with frozen cell lysate were allowed to warm to 0° C. Aliquots (100 μl) of the HUVEC cell lysate were added and the ELISA plates were agitated at ambient temperature for 3 hours. The wells were washed 3 times with 300 μl per well of PBST. […] Aliquots (100 μl) of the resultant dilution were added to each well and the plates were agitated at ambient temperature for 2 hours. The plates were washed 4 times with 300 μl per well of PBST. […] Aliquots (50 μl) of chemiluminescent substrate solution were added to each of the wells, the plates were agitated for 2 minutes and luminescence was read on a SpectraFluor is Plus plate reader (Tecan UK Ltd.). The resultant data were analysed to determine the IC50 value of each test compound.

The next assay deals with T2, PDGFRβ (Homo sapiens, UniProt P09619).
T2 construct: endogenous in cells; host or cells: MG63 osteosarcoma cells (ATCC)
T2 sequence (P09619 33-1106): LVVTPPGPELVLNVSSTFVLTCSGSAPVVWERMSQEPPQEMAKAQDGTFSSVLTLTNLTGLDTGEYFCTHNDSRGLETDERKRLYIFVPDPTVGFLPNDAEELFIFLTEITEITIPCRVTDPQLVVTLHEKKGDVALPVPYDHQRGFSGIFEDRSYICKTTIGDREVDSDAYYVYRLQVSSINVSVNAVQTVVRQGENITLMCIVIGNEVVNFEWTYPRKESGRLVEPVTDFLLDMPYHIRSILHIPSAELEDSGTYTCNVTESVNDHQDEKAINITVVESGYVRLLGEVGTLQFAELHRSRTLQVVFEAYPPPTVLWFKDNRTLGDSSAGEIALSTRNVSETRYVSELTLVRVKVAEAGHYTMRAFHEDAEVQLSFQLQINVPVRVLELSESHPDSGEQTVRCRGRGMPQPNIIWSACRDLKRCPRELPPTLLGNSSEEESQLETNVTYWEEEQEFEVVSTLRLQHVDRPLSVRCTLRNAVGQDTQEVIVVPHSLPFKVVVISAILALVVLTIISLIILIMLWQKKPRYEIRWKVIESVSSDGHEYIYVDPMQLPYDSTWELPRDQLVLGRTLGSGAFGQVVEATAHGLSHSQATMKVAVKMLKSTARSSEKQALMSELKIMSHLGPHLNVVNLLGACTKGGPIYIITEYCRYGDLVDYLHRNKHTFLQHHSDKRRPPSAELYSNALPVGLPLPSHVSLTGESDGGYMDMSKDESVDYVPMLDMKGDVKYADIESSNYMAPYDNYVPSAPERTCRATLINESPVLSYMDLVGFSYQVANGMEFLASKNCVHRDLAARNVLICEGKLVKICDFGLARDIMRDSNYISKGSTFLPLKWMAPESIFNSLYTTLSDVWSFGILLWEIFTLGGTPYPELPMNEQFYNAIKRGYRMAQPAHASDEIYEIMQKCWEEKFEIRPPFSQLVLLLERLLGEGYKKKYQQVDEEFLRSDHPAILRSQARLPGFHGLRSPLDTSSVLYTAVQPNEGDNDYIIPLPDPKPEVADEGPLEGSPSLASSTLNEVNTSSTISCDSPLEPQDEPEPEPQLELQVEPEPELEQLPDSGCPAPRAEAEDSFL
Put plainly: Test (b) in vitro phospho-Tyr751 PDGFRβ ELISA assay in MG63 osteosarcoma cells. The format is cell-based. As to conditions: MG63 osteosarcoma cells stimulated with PDGFBB, read-out: IC50 versus phospho-Tyr751 formation in PDGFRβ. How it is done: (b) In Vitro Phospho-Tyr751 PDGFRβ ELISA Assay
This assay uses a conventional ELISA method to determine the ability of test compounds to inhibit phosphorylation of tyrosine in PDGFRβ.
Aliquots (100 μl) of culture media were placed in the outer wells to minimise edge effects. The cells were incubated overnight at 37° C. with 7.5% CO2 to allow the cells to adhere to the wells.
Aliquots (3 μl) of each compound concentration were added to test medium (300 μl) to create a second dilution range. Aliquots (16 μl) of each resultant compound concentration were added to the cells in each well. “Maximum” control cells received a dilution of DMSO plus test medium only. “Minimum” control cells received a reference PDGFR inhibitor (16 μl). The cells were incubated for 90 minutes at 37° C. with 7.5% CO2.
The resultant cells were stimulated with PDGFBB using the following procedure. A lyophilised powder of PDGFBB, (Sigma-Aldrich; Catalogue No. P4306) was mixed with sterile water to provide a stock solution of 10 μg/ml of PDGFBB. […] Aliquots thereof (44 μl) were added to compound treated cells and to the “Maximum” control cells. The “Minimum” control cells received medium only. The cells were incubated at 37° C. with 7.5% CO2 for 5 minutes. […] The resultant tissue culture plates were shaken for 5 minutes at ambient temperature to ensure full lysis and then frozen at −20° C. until required.
Aliquots (50 μl) were added to each well and the plates were placed at 4° C. for 16 hours. The wells were washed 5 times (1 minute soak each time) with 300 μl per well of PBST. The wells were treated with 50 μl of 3% BSA in PBST at ambient temperature for 1 hour and subsequently washed twice with 300 μl per well of PBST.
The tissue culture plates with frozen cell lysate were allowed to warm to 0° C. Aliquots (50 μl) of the MG63 cell lysate were added to the ELISA plates. Each sample was duplicated on separate plates. The ELISA plates were agitated at ambient temperature for 2 hours. The wells were washed twice with 300 μl per well of PBST. […] Aliquots (50 μl) of the antibody solutions were added to each of the wells. The plates were agitated at ambient temperature for 1 hour. The plates were washed twice with 300 μl per well of PBST. […] Aliquots (50 μl) of the resultant dilution were added to each well and the plates were agitated at ambient temperature for 1 hour. The plates were washed 5 times with 300 μl per well of PBST. […] Aliquots (50 μl) of chemiluminescent substrate solution were added to each of the wells, the plates were agitated for 2 minutes and luminescence was read on a SpectraFluor Plus plate reader (Tecan UK Ltd., Reading, Berkshire, UK). Analysis for each of the compounds was completed by determining a ratio of the ‘phospho antibody’ plate reading to the ‘total antibody’ plate reading for each test sample and these ratios were plotted to determine the IC50 value of each test compound.

The subject of the next assay is PDGF receptor kinase. As to conditions: literature (Nature Reviews 2002; Cancer Research 1996); cited from earlier work.
Assay [1] has as its system human glioblastoma lines U343 and U87. Particulars: U343 and U87 injected into the brains of nude mice; Cancer Research 2000; cited from earlier work.
Assay [2] has as its system dermatofibrosarcoma protruberans cell cultures. Particulars: Cancer Research 2001; cited from earlier work.

T1 sequence (P35968 20-1356): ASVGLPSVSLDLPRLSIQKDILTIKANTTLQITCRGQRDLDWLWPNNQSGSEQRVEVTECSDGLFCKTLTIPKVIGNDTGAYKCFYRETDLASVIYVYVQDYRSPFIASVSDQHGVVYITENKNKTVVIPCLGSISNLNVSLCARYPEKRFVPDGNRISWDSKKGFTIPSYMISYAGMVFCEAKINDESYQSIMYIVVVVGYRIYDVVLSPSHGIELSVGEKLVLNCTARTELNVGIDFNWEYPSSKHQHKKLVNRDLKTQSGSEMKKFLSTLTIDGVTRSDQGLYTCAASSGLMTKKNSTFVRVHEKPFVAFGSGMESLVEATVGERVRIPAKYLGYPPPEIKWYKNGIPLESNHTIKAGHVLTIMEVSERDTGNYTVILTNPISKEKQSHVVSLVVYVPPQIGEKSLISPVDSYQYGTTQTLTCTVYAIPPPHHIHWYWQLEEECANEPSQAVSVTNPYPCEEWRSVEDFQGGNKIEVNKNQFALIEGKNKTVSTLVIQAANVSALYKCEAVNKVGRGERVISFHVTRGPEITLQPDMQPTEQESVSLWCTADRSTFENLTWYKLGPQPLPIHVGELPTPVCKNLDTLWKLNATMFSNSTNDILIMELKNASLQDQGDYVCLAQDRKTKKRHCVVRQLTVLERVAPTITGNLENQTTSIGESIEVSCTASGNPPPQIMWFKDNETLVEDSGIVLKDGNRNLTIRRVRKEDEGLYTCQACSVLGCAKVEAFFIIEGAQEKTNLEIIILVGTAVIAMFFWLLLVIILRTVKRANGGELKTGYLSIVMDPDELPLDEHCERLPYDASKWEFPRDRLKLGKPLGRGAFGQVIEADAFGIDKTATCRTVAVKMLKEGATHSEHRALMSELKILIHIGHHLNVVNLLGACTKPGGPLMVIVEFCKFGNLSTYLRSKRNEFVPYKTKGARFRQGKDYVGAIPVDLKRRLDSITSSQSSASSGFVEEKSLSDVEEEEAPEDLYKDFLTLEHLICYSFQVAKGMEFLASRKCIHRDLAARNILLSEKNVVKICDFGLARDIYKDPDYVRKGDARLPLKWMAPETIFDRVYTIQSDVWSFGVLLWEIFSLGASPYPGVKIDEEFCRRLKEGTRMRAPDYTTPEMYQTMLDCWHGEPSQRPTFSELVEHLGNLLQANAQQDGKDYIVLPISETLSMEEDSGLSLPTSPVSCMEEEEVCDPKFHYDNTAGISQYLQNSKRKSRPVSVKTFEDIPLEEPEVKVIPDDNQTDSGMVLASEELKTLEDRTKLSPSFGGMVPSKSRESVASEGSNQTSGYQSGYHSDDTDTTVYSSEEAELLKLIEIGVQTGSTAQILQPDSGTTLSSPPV

As to `COc1cc(Oc2ccnc3ccc(F)cc23)ccc1CC(=O)Nc1n[nH]c(C)c1C` [N-(4,5-dimethyl-1H-pyrazol-3-yl)-2-[4-(6-fluoroquinolin-4-yloxy)-2-methoxyphenyl]acetamide], the IC50 on KDR (VEGFR2) is above 2000 nM; on PDGFRβ, around 10 nM.

As for `COc1cc(Oc2ccnc3ccc(F)cc23)ccc1CC(=O)Nc1cc(C)[nH]n1` [N-(5-methyl-1H-pyrazol-3-yl)-2-[4-(6-fluoroquinolin-4-yloxy)-2-methoxyphenyl]acetamide], the IC50 at KDR (VEGFR2) is above 2000 nM; at PDGFRβ it was around 10 nM.

As to `CCn1cc(NC(=O)Cc2ccc(Oc3ccnc4ccccc34)cc2OC)cn1` [N-(1-ethyl-1H-pyrazol-4-yl)-2-(2-methoxy-4-quinolin-4-yloxyphenyl)acetamide], the half-maximal inhibitory concentration (IC50) on KDR (VEGFR2) was above 1000 nM; at PDGFRβ it was around 20 nM.

Take `CNC(=O)c1cc2c(Oc3ccc(CC(=O)Nc4noc(C)c4C)c(OC)c3)ccnc2cc1OC` [N-(4,5-dimethylisoxazol-3-yl)-2-{2-methoxy-4-[7-methoxy-6-(N-methylcarbamoyl)quinolin-4-yloxy]phenyl}acetamide]: the concentration for half-maximal inhibition (IC50) is around 1000 nM at KDR (VEGFR2) and around 5 nM on PDGFRβ.

As to `CCn1cc(NC(=O)Cc2ccc(Oc3ccnc4cc(OC)c(C(=O)N(C)C)cc34)cc2)cn1` [N-(1-ethyl-1H-pyrazol-4-yl)-2-{4-[6-(N,N-dimethylcarbamoyl)-7-methoxyquinolin-4-yloxy]phenyl}acetamide], the IC50 was around 700 nM at KDR (VEGFR2) and around 3 nM at PDGFRβ.

For the compound `Cc1ccc(NC(=O)c2ccc(CN3CCN(C)CC3)cc2)cc1Nc1nccc(-c2cccnc2)n1` [imatinib], the “inhibition of PDGF receptor kinase activity” value in the assay on PDGF receptor kinase is listed as “shown to inhibit PDGF receptor kinase activity”. For the same compound, the “inhibition of growth of glioblastoma tumours” value in assay [1] is reported as “inhibits the growth of glioblastoma tumours”. In addition, the “inhibition of in vivo growth of dermatofibrosarcoma protruberans cell cultures” value in assay [2] is “inhibits the in vivo growth of dermatofibrosarcoma protruberans cell cultures”.

Consider `CCn1cc(NC(=O)Cc2ccc(Oc3ccnc4cc(OC)c(C#N)cc34)cc2OC)cn1` [N-(1-ethyl-1H-pyrazol-4-yl)-2-[4-(6-cyano-7-methoxyquinolin-4-yloxy)-2-methoxyphenyl]acetamide], for which the results for the IC50 at KDR (VEGFR2) and on PDGFRβ were around 750 nM and around 2 nM, respectively.

`CCn1cc(NC(=O)Cc2ccc(Oc3ccnc4cc(OC)c(C#N)cc34)cc2)cn1` [N-(1-ethyl-1H-pyrazol-4-yl)-2-[4-(6-cyano-7-methoxyquinolin-4-yloxy)phenyl]acetamide]: the IC50 is around 200 nM at KDR (VEGFR2) and around 2 nM on PDGFRβ.

For `CCc1c[nH]nc1NC(=O)Cc1ccc(Oc2ccnc3cc(OC)c(OC)cc23)cc1OC` [N-(4-ethyl-1H-pyrazol-3-yl)-2-[4-(6,7-dimethoxyquinolin-4-yloxy)-2-methoxyphenyl]acetamide], the IC50 was above 2000 nM at KDR (VEGFR2) and around 5 nM on PDGFRβ.
